Measurements taken from patent US20260284168A1, “RNA FOR PREVENTING OR TREATING TUBERCULOSIS” (priority 2023, published 2026).

Test system: Caspase-1
Type: cell-based
Conditions: 50 μM

With `CCO[C@@H]1OC(=O)C[C@@H]1NC(=O)[C@@H]1CCCN1C(=O)[C@@H](NC(=O)c1ccc(N)c(Cl)c1)C(C)(C)C` [VX765] the “effect of Caspase-1 inhibitor on IL-1β release” value was “inhibited IL-1ß release”.
